Reference: article PMC8961551, “Potential Anticancer Agents against Melanoma Cells Based on an As-Synthesized Thiosemicarbazide Derivative” (Biomolecules, 2022)

Key:
[1] = test system: melanoma line G-361; assay: Intracellular thiol / reduced glutathione (GSH) content, VB-48 vitality assay; type: cell-based, human; details: G-361, 24 h, compound at IC50 concentration, representative histogram; quadrant not defined in legend
Method: Analyses of the levels of cellular thiols were performed using NC 3000 system (Chemometec., Lillerød, Denmark) according to the manufacturer’s protocol for the cell vitality assay. The G-361 cells were seeded in 12-well culture plates at a density of 1 × 10^5 cell/mL and the tested compounds in concentrations corresponding to IC50 value were added when 70–80% of confluence was achieved. The cells were counted, and suspended in 1 mL of culture medium. A representative sample of 190 uL was pipetted into the new Eppendorf tubes and 10 µL of Solution 5 (which contains acridine orange (AO) that stains all nucleated cells; PI which stains dead cells only; and VitaBright-48 TM ([…]) which stains viable cells in an intensity-dependent manner reliant on the level of thiols) was added to the cell suspension. Next, the stained cells were loaded into 8-chamber NC-Slides A8™ (Chemometec., Lillerød, Denmark) and measured using the Vitality (VB-48) Assay protocol in the NC-3000 image cytometer. The experiment was performed three times with three replicates.

[2] = test system: G-361 melanoma; assay: MTT cytotoxicity, G-361 melanoma; type: cell-based, human; details: for cytotoxic to melanoma cells (MTT test): G-361, concentration range used; for IC50: MTT test, 24 h treatment, G-361 melanoma
Method: Biological studies were performed on human malignant melanoma G-361 (ATCC CRL-1424) cell lines and human fibroblast BJ (ATCC® CRL-2522™) cell lines purchased from the American Type Culture Collection (ATCC, Manassas, VA USA). The G-361 cell lines were maintained in McCoy’s medium (Corning, NY, USA), and the fibroblast BJ cell line was cultured in EMEM (Corning, NY, USA). All media were supplemented with 10% heat-inactivated fetal bovine serum (PAN-Biotech, Aidenbach, Germany), 100 U/mL penicillin, 100 μg/mL streptomycin and 0.25 μg/mL amphotericin B (Sigma-Aldrich, St. Louis, MO, USA). Cultures were maintained at 37 °C in a humidified atmosphere of 95% air and 5% CO2. The experiments were performed using cells from passage 5 to 10.
The cytotoxicity of the new compounds was evaluated against both the G-361 and BJ cell lines. Cells were seeded into 96-well plates at a density of 3 × 10^4 cells/well and 2 × 10^4 cells/well. After 24 h of incubation, when 70–80% confluence was reached, the culture medium was removed and replaced with the fresh one containing the tested compounds in the concentration range of 10, 25, 50, 75, 100, 125 and 250 μM. Cells were cultured at 37 °C in the presence of 5% air with CO2 for another 24 h. The cytotoxicity of the test compounds was evaluated by the MTT colorimetric assay, based on the ability of live cells to convert yellow soluble tetrazolium salts (3-[4,5-dimethylthiazol-2-yl]- 2,5-diphenyltetrazolium bromide, MTT) to purple insoluble formazan by cellular dehydrogenase. After 24 h of incubation with solutions of the test compounds, 4 mg/mL MTT solution (Thermo Scientific, Waltham, MA, USA) was added to the cell cultures and incubation was continued for 4 h at 37 °C. The MTT medium was then removed, and the resulting crystals were dissolved in 200 µL of DMSO. The solution was measured for absorbance at 570 nm using a Power Wave xs spectrophotometric plate reader, BioTek Instruments (Winooski, VT, USA). The experiment was performed three times with three replicates for each concentration. IC50 values were determined using the AAT Bioquest IC50 calculator.

[3] = RP-TLC lipophilicity; type: physicochemical; details: for RMW (chromatographic lipophilicity parameter): RP-18 plates, methanol-water 65-95%, extrapolated to 0% methanol; for -S TLC (slope of linear equation): Table S3
Method: RP-TLC analysis was performed using RP-18 TLC silica gel 60 F254 plates (10 × 20 cm, Merck, Darmstadt, Germany) with a DS-II chromatographic horizontal chamber (CHROMDES, Lublin, Poland). The mobile phase consisted of methanol (POCH, Gliwice, Poland) and water with the following concentrations of methanol: 65–95% (%, v/v), with a concentration change every 5%. After drying, the spots were observed under a UV lamp with a wavelength of 254 nm.

[4] = test system: melanoma line G-361; assay: Annexin V / propidium iodide apoptosis assay (image cytometry); type: cell-based, human; details: G-361, 24 h, compound at IC50 concentration, representative histogram
Method: Cell apoptosis assays were performed using an NC 3000 system (Chemometec., Lillerød, Denmark) according to the manufacturer’s protocol for the Annexin V Assay. The G-361 cells were seeded in 6-well plates at a density of 2 × 10^5 cells/mL and the tested compounds with concentration IC50 were added when 70–80% of confluence was achieved. After 24 h incubation, cells were suspended in 100 μL of Annexin V binding buffer with 2 µL of Annexin V-CF488A conjugate (FITC-labeled annexin V) and 2 µL of Solution 15 (Hoechst33342 stains). In the next step, the cells were incubated for 15 min at 37 °C and subsequently centrifuged at 400× g for 5 min. Following the removal of the supernatant, the cell pellets were resuspended in 300 µL of Annexin V binding buffer and centrifuged twice under the conditions described above. Eventually, the cell pellets were resuspended in 100 µL of Annexin V binding buffer and 2 µL of Solution 16 (propidium iodide, which stains late apoptotic and necrotic cells) was added. The prepared samples were analyzed immediately using 2-chamber NC-Slides A2™ (Chemometec., Lillerød, Denmark) and the Annexin V Assay protocol. The obtained scatterplots were used to demarcate the percentage of healthy cells and early and late apoptotic cells. The experiment was performed three times with three replicates.

[5] = RP-HPLC lipophilicity; type: physicochemical; details: for logkW (chromatographic lipophilicity parameter): Kinetex C18, methanol-water 55-80%, extrapolated to 0% methanol; for -S HPLC (slope of linear equation): Table S3
Method: RP-HPLC analysis was performed using a Merck-Hitachi LaChrom Elite System (Merck, Darmstadt, Germany) with diode array detector L-2455, thermostat L-2300, pump L-2130 and autosampler L-2200 with a Kinetex C18 (5µm; 150 × 4,6mm) chromatographic column (Phenomenex, Torrance, USA) as the stationary phase. The mobile phase consisted of methanol (Merck, Darmstadt, Germany) and water (double-distilled), which was degassed by use of the built-in membrane degasser. Subsequently, 5 μL methanolic solution (0.1%; m/v) of the selected samples was applied to the chromatographic column by use of a Hitachi L-2200 autosampler (LaChrom Elite, Hitachi-Merck, Darmstadt, Germany). The analysis was performed with a flow rate of 0.7 mL min^−1 in isocratic mode using various concentrations of organic modifier (methanol) in binary polar mobile phases; percentages of methanol in water were 55–80% (%, v/v) and changed by 5% per step. Chromatograms were detected at 254 nm and the temperature of the column was 25 °C. All experiments were repeated in triplicate and the final results were taken to be the arithmetic means. Dead time was measured using uracil (Calbiochem. Merck, Darmstadt, Germany).

| SMILES | GSH content analysis, quadrant Q1ll [1] | GSH content analysis, quadrant Q1lr [1] | GSH content analysis, quadrant Q1ul [1] | GSH content analysis, quadrant Q1ur [1] | cytotoxic to melanoma cells (MTT test) [2] | IC50 ([2]; Homo sapiens) | RMW (chromatographic lipophilicity parameter) [3] | -S TLC (slope of linear equation) [3] | Q1ll, normal cells [4] | Q1lr, early apoptotic cells [4] | Q1ul, necrotic cells [4] | Q1ur, late apoptotic cells [4] | logkW (chromatographic lipophilicity parameter) [5] | -S HPLC (slope of linear equation) [5] | IC50 [2] |
| --- | --- | --- | --- | --- | --- | --- | --- | --- | --- | --- | --- | --- | --- | --- | --- |
| CSc1ccc(NC(=S)NNC(=O)COc2ccc(Cl)cc2Cl)cc1 [PK2, 1-(2,4-dichlorophenoxy)acetyl-4-(4-metylothiophenyl)thiosemicarbazide] | 3% | 44% | 30% | 23% | cytotoxic | 108 ± 6 µM | 3.2058 | 3.8253 | 52% | 7% | 2% | 39% | 4.7804 | 6.3581 | – |
| O=C(COc1ccc(Cl)cc1Cl)NNC(=S)Nc1ccccc1I [PK6, 1-(2,4-dichlorophenoxy)acetyl-4-(2-iodophenyl)thiosemicarbazide] | 4% | 46% | 28% | 22% | cytotoxic | – | 2.8125 | 3.3436 | 30% | 17% | 4% | 49% | 4.1439 | 5.4574 | 112 ± 4.76 µM |
| O=C(COc1ccc(Cl)cc1Cl)NNC(=S)Nc1cccc2ccccc12 [PK9, 1-(2,4-dichlorophenoxy)acetyl-4-(1-naphtyl)thiosemicarbazide] | 3% | 41% | 26% | 30% | cytotoxic | – | 3.1398 | 3.8345 | 32% | 28% | 1% | 39% | 4.6425 | 6.1619 | 113 ± 4 µM |
